Reference: patent US10336701B2, “Pyridin-2-one derivatives of formula (II) useful as EP3 receptor antagonists” (Janssen Pharmaceutica NV, priority 2017, dated 2019)

molecular target: T1, EP3 receptor (Homo sapiens, UniProt P43115); test: [3H]-PGE2 binding assay (EP3 competition binding); conditions: [3H]-PGE2 Binding Ki
T1 construct: purchased Millipore HTS092M
T1 sequence (P43115 1-390): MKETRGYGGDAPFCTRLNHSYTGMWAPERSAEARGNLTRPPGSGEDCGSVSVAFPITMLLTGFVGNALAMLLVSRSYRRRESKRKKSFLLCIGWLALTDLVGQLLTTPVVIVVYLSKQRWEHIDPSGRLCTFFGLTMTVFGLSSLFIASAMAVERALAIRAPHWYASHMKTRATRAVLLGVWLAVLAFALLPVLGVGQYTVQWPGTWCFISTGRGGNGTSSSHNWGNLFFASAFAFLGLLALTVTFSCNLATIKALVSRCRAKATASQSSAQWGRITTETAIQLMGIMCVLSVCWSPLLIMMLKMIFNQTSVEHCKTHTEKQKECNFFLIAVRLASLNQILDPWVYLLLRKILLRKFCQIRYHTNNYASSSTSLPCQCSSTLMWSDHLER
Protocol: EP3 competition binding was determined using the following materials and experimental conditions:
Beads=Perkin Elmer RPNQ0001
EP3 membrane=Millipore HTS092M
Membrane concentration=2 μg/well
Beads concentration=0.25 mg/well
[3H]-PGE2=2 nM; DMSO—0.1%
Binding buffer=50 mM Tris, 10 mM MgCl2, 1 mM • EDTA, PH 7.4.
The binding buffer was removed from refrigeration (@ 4° C.) and allowed to warm to room temperature. Test compound (@ stock concentration of […] in DMSO) was serial dilutes (1:3) with 100% DMSO using Echo plate. Diluted test compound (30 nL) was dispensed to the 384-well assay plate (using Echo 550 Labcyte System). To each well was then added assay buffer (5 μl) and each well was spun. Beads were weighed out, dissolved in assay buffer to a concentration of 0.25 mg/15 μl. Original membrane was diluted with assay buffer to a concentration of 2 μg/5 μl. […] To each test well were then added diluted [3H]-PGE2 (5 μl), diluted membrane (5 μl), and dissolved beads (15 μl). The plate was equilibrated at room temperature on a plate shaker for 2 hours and then read with a TOPCOUNT scintillation plate reader. Results were analyzed using a Prism program with non-linear regression, one-site fit for Ki.

Structure (SMILES) | Ki [nM]
CCn1ncc2c(F)cc(-c3ccc(C4CC5CCC(C4)N5C(=O)NC(C)C)c(=O)[nH]3)cc21 (centres unmarked) [compound 208, 3-(6-(1-ethyl-4-fluoro-1H-indazol-6-yl)-2-oxo-1,2-dihydropyridin-3-yl)-N-isopropyl-8-azabicyclo[3.2.1]octane-8-carboxamide] | 158
CCn1ncc2c(F)cc(-c3ccc(C4CC5CCC(C4)N5S(=O)(=O)C(C)C)c(=O)[nH]3)cc21 (centres unmarked) [compound 206, 6-(1-ethyl-4-fluoro-1H-indazol-6-yl)-3-(8-(isopropylsulfonyl)-8-azabicyclo[3.2.1]octan-3-yl)pyridin-2(1H)-one] | 25

same assay, conditions: read-out: [3H]-PGE2 Binding Ki

Structure (SMILES) | Ki [nM]
CCn1ncc2c(F)cc(-c3ccc(C(CC)(CC)Cc4ncco4)c(=O)[nH]3)cc21 [Compound #41, 6-(1-ethyl-4-fluoro-1H-indazol-6-yl)-3-(3-(oxazol-2-ylmethyl)pentan-3-yl)pyridin-2(1H)-one] | 2
CCn1ncc2c(F)cc(-c3ccc(C(CC)(CC)c4nnc(N)o4)c(=O)[nH]3)cc21 [Compound #51, 3-(3-(5-amino-1,3,4-oxadiazol-2-yl)pentan-3-yl)-6-(1-ethyl-4-fluoro-1H-indazol-6-yl)pyridin-2(1H)-one] | 2060
CC(C)c1cccc2ccc(-c3ccc(C(/C=C4\OC(=O)NC4=O)C(C)C)c(=O)[nH]3)cc12 (centres unmarked) [compound 135, (Z)-5-(2-(6-(8-isopropylnaphthalen-2-yl)-2-oxo-1,2-dihydropyridin-3-yl)-3-methylbutylidene)oxazolidine-2,4-dione] | 85
CCn1ncc2c(F)cc(-c3[nH]c(=O)c(C(/C=C4\CCNC4=O)(CC)CC)cc3F)cc21 [compound 47, (E)-6-(1-ethyl-4-fluoro-1H-indazol-6-yl)-5-fluoro-3-(3-((2-oxopyrrolidin-3-ylidene)methyl)pentan-3-yl)pyridin-2(1H)-one] | 25
CCn1ncc2c(F)cc(-c3ccc(C4CCC5(CC4)CCN(S(=O)(=O)C(C)C)CC5)c(=O)[nH]3)cc21 [compound 204, 6-(1-ethyl-4-fluoroindazol-6-yl)-3-[3-(propane-2-sulfonyl)-3-azaspiro[5.5]undecan-9-yl]-1H-pyridin-2-one] | 12
CCC(CC)(Cc1nnc[nH]1)c1ccc(-c2ccc3cc(F)cc(F)c3c2)[nH]c1=O [compound 279, 3-(3-((4H-1,2,4-triazol-3-yl)methyl)pentan-3-yl)-6-(6,8-difluoronaphthalen-2-yl)pyridin-2(3H)-one] | 60
CCn1ncc2c(F)cc(-c3ccc(C4CC5CN(C(=O)NC(C)C)CC5C4)c(=O)[nH]3)cc21 (centres unmarked) [compound 209, 5-(6-(1-ethyl-4-fluoro-1H-indazol-6-yl)-2-oxo-1,2-dihydropyridin-3-yl)-N-isopropyl-hexahydrocyclopenta[c]pyrrole-2(1H)-carboxamide] | 20
CCn1ncc2c(F)cc(-c3ccc(C(CC)(CC)c4nnc(C)o4)c(=O)[nH]3)cc21 [Compound #271, 6-(1-ethyl-4-fluoro-1H-indazol-6-yl)-3-(3-(5-methyl-1,3,4-oxadiazol-2-yl)pentan-3-yl)pyridin-2(1H)-one] | 6
CCn1ncc2c(F)cc(-c3ccc(C(C(C)C)n4cnnc4)c(=O)[nH]3)cc21 (centres unmarked) [Compound #172, 6-(1-ethyl-4-fluoro-1H-indazol-6-yl)-3-(2-methyl-1-(4H-1,2,4-triazol-4-yl)propyl)pyridin-2(1H)-one] | 25
CCn1ncc2c(F)cc(-c3ccc(C(CC4CCC(=O)N4)C(C)C)c(=O)[nH]3)cc21 (centres unmarked) [compound 151, 6-(1-ethyl-4-fluoro-1H-indazol-6-yl)-3-(3-methyl-1-(5-oxopyrrolidin-2-yl)butan-2-yl)pyridin-2(1H)-one] | 11
CCn1ncc2c(F)cc(-c3ccc(C4CCC5(CCNC5=O)CC4)c(=O)[nH]3)cc21 (centres unmarked) [compound 207, 8-(6-(1-ethyl-4-fluoro-1H-indazol-6-yl)-2-oxo-1,2-dihydropyridin-3-yl)-2-azaspiro[4.5]decan-1-one] | 15
CCn1ncc2c(F)cc(-c3ccc(C(CC)(CC)c4nnc(C(C)C)o4)c(=O)[nH]3)cc21 [Compound #38, 6-(1-ethyl-4-fluoro-1H-indazol-6-yl)-3-(3-(5-isopropyl-1,3,4-oxadiazol-2-yl)pentan-3-yl)pyridin-2(1H)-one] | 13

The remaining lines, values ahead:

Ki [nM] | Structure (SMILES)
1080 | CCC(CC)(c1ncc[nH]1)c1ccc(-c2ccc3cc(F)cc(F)c3c2)[nH]c1=O [compound 50, 3-(3-(1H-imidazol-2-yl)pentan-3-yl)-6-(6,8-difluoronaphthalen-2-yl)pyridin-2(1H)-one]
632 | CCn1ncc2c(F)cc(-c3ccc(C(CC4CCNC4=O)C(C)C)c(=O)[nH]3)cc21 (stereo not drawn) [compound 147, Syn-6-(1-ethyl-4-fluoro-1H-indazol-6-yl)-3-(3-methyl-1-(2-oxopyrrolidin-3-yl)butan-2-yl)pyridin-2(1H)-one]
452 | CCn1ncc2c(F)cc(-c3[nH]c(=O)c(C(CC)(CC)CC4=CCNC4=O)cc3F)cc21 [compound 46, 6-(1-ethyl-4-fluoro-1H-indazol-6-yl)-5-fluoro-3-(3-((2-oxo-2,5-dihydro-1H-pyrrol-3-yl)methyl)pentan-3-yl)pyridin-2(1H)-one]
228 | CCC(/C=C1\OC(=O)NC1=O)(CC)c1ccc(-c2ccc3cccc(C(F)(F)F)c3c2)[nH]c1=O [compound 23, 5-(2-ethyl-2-(2-oxo-6-(8-(trifluoromethyl)naphthalen-2-yl)-1,2-dihydropyridin-3-yl)butylidene)oxazolidine-2,4-dione]
121 | CC(C)C(/C=C1\OC(=O)NC1=O)c1ccc(-c2ccc3cccc(C#N)c3c2)[nH]c1=O (mixture of isomers) [compound 142, (Z)-7-(5-(1-(2,4-dioxooxazolidin-5-ylidene)-3-methylbutan-2-yl)-6-oxo-1,6-dihydropyridin-2-yl)-1-naphthonitrile]
29 | CCn1ncc2c(F)cc(-c3ccc(C(C(C)C)n4cnnn4)c(=O)[nH]3)cc21 (centres unmarked) [Compound #171, 6-(1-ethyl-4-fluoro-1H-indazol-6-yl)-3-(2-methyl-1-(1H-tetrazol-1-yl)propyl)pyridin-2(1H)-one]
29 | CCn1ncc2c(F)cc(-c3ccc([C@@]45CCC[C@@H](C4)C(=O)O5)c(=O)[nH]3)cc21 (racemic) [compound 299]
28 | CCC(/C=C1/OC(=O)NC1=O)(CC)c1ccc(-c2ccc3c(F)cc(F)cc3c2)[nH]c1=O [compound 10, (E)-5-(2-(6-(5,7-difluoronaphthalen-2-yl)-2-oxo-1,2-dihydropyridin-3-yl)-2-ethylbutylidene)oxazolidine-2,4-dione]
24 | CCn1ncc2c(F)cc(-c3[nH]c(=O)c(C(CC)(CC)c4ncco4)cc3F)cc21 [Compound #37, 6-(1-ethyl-4-fluoro-1H-indazol-6-yl)-5-fluoro-3-(3-(oxazol-2-yl)pentan-3-yl)pyridin-2(1H)-one]
19 | CCn1ncc2c(F)cc(-c3ccc(C(CC)(CC)c4nnc(N)s4)c(=O)[nH]3)cc21 [Compound #52, 3-(3-(5-amino-1,3,4-thiadiazol-2-yl)pentan-3-yl)-6-(1-ethyl-4-fluoro-1H-indazol-6-yl)pyridin-2(1H)-one]
14 | CCN1CCOc2c(F)cc(-c3ccc(C(CC)(CC)CC4CCNC4=O)c(=O)[nH]3)cc21 (centres unmarked) [compound 17, 6-(4-ethyl-8-fluoro-3,4-dihydro-2H-benzo[b][1,4]oxazin-6-yl)-3-(3-((2-oxopyrrolidin-3-yl)methyl)pentan-3-yl)pyridin-2(1H)-one]
11 | CCn1ncc2c(F)cc(-c3ccc(C(CC)(CC)Cc4ncc[nH]4)c(=O)[nH]3)cc21 [compound 20, 3-(3-((1H-imidazol-2-yl)methyl)pentan-3-yl)-6-(1-ethyl-4-fluoro-1H-indazol-6-yl)pyridin-2(1H)-one]
7 | CCn1ncc2c(F)cc(-c3ccc(C(CC)(CC)Cc4nnc[nH]4)c(=O)[nH]3)cc21 [compound 15, 3-(3-((4H-1,2,4-triazol-3-yl)methyl)pentan-3-yl)-6-(1-ethyl-4-fluoro-1H-indazol-6-yl)pyridin-2(1H)-one]
7 | CCn1ncc2c(F)cc(-c3ccc(C(CC)(CC)CC4CCCNC4=O)c(=O)[nH]3)cc21 (centres unmarked) [compound 58, 6-(1-ethyl-4-fluoro-1H-indazol-6-yl)-3-(3-((2-oxopiperidin-3-yl)methyl)pentan-3-yl)pyridin-2(1H)-one]
6 | CCc1nnc(C(CC)(CC)c2ccc(-c3cc(F)c4cnn(CC)c4c3)[nH]c2=O)o1 [Compound #53, 3-(3-(5-ethyl-1,3,4-oxadiazol-2-yl)pentan-3-yl)-6-(1-ethyl-4-fluoro-1H-indazol-6-yl)pyridin-2(1H)-one]
